In one data set the test system is angina. The settings on record: conscious rats; cited from earlier work.
Data set [1] relates to TAA induced fibrotic livers. Nature of the data set: Thioacetamide (TAA)-induced chronic liver fibrosis rat model: liver function index in blood (GOT, GPT, total bilirubin, albumin, prothrombin time). The format is in vivo, Wistar rats. As for the experimental part: (§1) 5 ml/kg of thioacetamide (TAA) was injected intraperitoneally into Wistar rats every three days for eight weeks to induce the liver damage. The therapy was performed starting from the fifth week during the thioacetamide induction. 80 mg/Kg/day or 500 mg/Kg/day of n-BP were orally administrated in experimental rats for four weeks.
(§2) To establish the chronic liver fibrosis model in rat, adult male Wistar rats (320±20 g) were used and were intraperitoneally injected with 200 mg/kg TAA (Sigma-Aldrich) once every 3 days for 8 weeks as the liver fibrosis model (78 rats). In the Normal group (24 rats), normal saline was used in place of the TAA. At the end of 4, 6, 8, and 10 weeks (i.e., day 28, 42, 56, and 70 respectively), these rats were sacrificed and cardiac blood samples were collected. These samples were analyzed with a biochemical analyzer (Integra 800; Roche, Holliston, Mass., USA) to measure the liver function index, which included glutamate oxaloacetate transaminase (GOT), glutamate pyruvate transaminase (GPT), serum albumin, total bilirubin and prothrombin time.
(§3) 78 rats with TAA induced fibrotic livers were randomly divided into 4 groups. For group 1 (TAA group), there were 24 rats which received no therapy. The remaining […] were divided into three groups: Control group, n-BP treated group I (BP 80 mg/kg group) and n-BP treated group II (BP 500 mg/kg group). For these three groups, from the beginning of week 5 to the end of week 8, olive oil, n-BP (80 mg/Kg/day), and n-BP (500 mg/Kg/day) were orally administrated once per day to the rats, wherein the dosage was 1 ml of olive oil per kilogram body weight (Control group), 1 ml of 80 mg/ml n-BP olive oil solution per kilogram body weight (BP 80 mg/kg group), and 1 ml of 500 mg/ml n-BP olive oil solution per kilogram of body weight (BP 500 mg/kg group), respectively. n-BP was purchased from Alfa Aesar®, cat. A10353.
(§4) At the end of 6, 8, and 10 weeks, rats of each group were sacrificed and cardiac blood samples were collected. These samples were analyzed with a biochemical analyzer (Integra 800; Roche, Holliston, Mass., USA) to measure the liver function index, which included glutamate oxaloacetate transaminase (GOT), glutamate pyruvate transaminase (GPT), serum albumin, and prothrombin time. Afterwards, the histopathology of liver tissue samples obtained from the sacrificed rats was also analyzed. Liver tissue samples were fixed in 3.7% formaldehyde and then embedded in paraffin. Serial 3-μm sections of the embedded tissues were stained with hematoxylin and eosin or Masson's trichrome as described above.

Data set [2] concerns TAA induced fibrotic livers. Nature of the data set: Thioacetamide (TAA)-induced chronic liver fibrosis rat model: gross examination and histopathology (H&E, Masson's trichrome, Metavir score). The format is in vivo, Wistar rats. As to the method:
as §1, §2
Afterwards, the histopathology of liver tissue samples obtained from the sacrificed rats were also analyzed. Liver tissue samples were fixed in 3.7% formaldehyde and then embedded in paraffin. Serial 3-μm sections of the embedded tissues were stained with hematoxylin and eosin or Masson's trichrome. Liver fibrosis is the excessive accumulation of collagen in liver, and therefore the accumulation of collagen is an important index for evaluating liver fibrosis. Masson's trichrome stain is frequently used to identify increases in collagenous tissue in fibrotic liver. For Masson's trichrome stain, sectioned samples were placed in Bouin's solution (Sigma-Aldrich) at 56° C. for 1 h and then were stained sequentially with the following solutions: Mayer's hematoxylin solution (Sigma-Aldrich) for 5 min, Biebrich scarlet-acid fuchsin solution (Sigma-Aldrich) for 15 min, phosphomolybdic acid-phosphotungstic acid (Sigma-Aldrich) for 15 min, and aniline blue (Sigma-Aldrich) for 5 min.
as §3, §4

For data set [3], the system named is alcoholic-induced liver cirrhosis. The settings on record: patients with alcoholic-induced liver cirrhosis; cited from earlier work.
[4] abbreviates: both n-BP treated groups, end of week 10.

“Also recorded” adds a separate entry of the source.

As for `CCCC=C1OC(=O)c2ccccc21` [n-BP, n-butylidenephthalide], in the data set on angina, the antianginal effect entry is on record as “relieves angina” and the “effect on blood pressure or heart rate” value is “without affecting blood pressure or the heart rate”. The “serum total bilirubin level” value in data set [1] (both n-BP treated groups, end of week 6 (two weeks after treatments) continuing to end of week 10) was “decline at the end of week 6”. In data set [1] (setting [4]), the prothrombin time result is reported as “decreased to approach that of the Normal group”, the “serum GOT level” value is recorded as “decline to near-normal values”, the “serum GPT level” value is given as “decline to near-normal values” and the “serum total bilirubin level versus Control group” value is reported as “significantly lower”. In addition, the prothrombin time result in data set [1] (both n-BP treated groups, from the end of week 6) is listed as “decreases”. Besides, in data set [1] (n-BP 80 or 500 mg/Kg/day oral for four weeks), the “liver function index including GOT, GPT, albumin, total bilirubin and prothrombin time, versus control group” value is “significant recovery of liver damage”. Besides, in data set [1] (n-BP treated groups, end of week 10), the serum albumin level is 4.35 ± 0.47 g/dL. Further, the albumin level entry in data set [1] (n-BP treated groups, ends of week 6 and week 8) is “rises”. Also, in data set [2] (BP 80 mg/kg group (No. 73, 78) and BP 500 mg/kg group (No. 81, 87)), the “gross examination of the liver” value was “become even better like normal liver morphology”. Besides, the “inflammatory activity scores (Metavir)” value in data set [2] (n-BP 80 or 500 mg/Kg/day oral) was “improvement in the recovery of the damaged liver occurs 2 weeks after n-BP treatment”. In addition, the “fibrosis grade (Metavir), Masson's trichrome staining” value in data set [2] (n-BP 80 or 500 mg/Kg/day oral, weeks 5-8, on 42, 56 and 70 days, control group grade 3-4) was 1-2. The “fibrosis score versus control group (olive oil)” value in data set [2] (n-BP 80 or 500 mg/Kg/day oral, 42, 56 and 70 days) is recorded as “lower”. The “collagen accumulation in liver (Masson's trichrome staining)” value in data set [2] (n-BP 80 or 500 mg/Kg/day oral, 42, 56 and 70 days (weeks 6, 8, 10)) is reported as “Collagen degradation was found; also recorded: almost no collagen accumulation”. Besides, the “liver damage in hematoxylin and eosin stained sections” value in data set [2] (n-BP 80 or 500 mg/Kg/day oral, end of 8 weeks and 10 weeks) was “recovery from tissue degeneration and vacuolation was evident”. Also, the “inflammation and accumulation of collagen fibers (histopathological examinations)” value in data set [2] (therapy groups, n-BP 80 or 500 mg/Kg/day oral for four weeks) is reported as “significantly reduced”.
With `CC(=O)CCCCn1c(=O)c2c(ncn2C)n(C)c1=O` [Pentoxifylline], the mortality result in data set [3] is reported as “significantly reduce the mortality”.

These data come from patent publication US8927601B2, “Uses of N-butylidenephthalide in treating a liver injury and improving liver function” (National Dong Hwa University, priority 2011, dated 2015).
